The values that follow come from patent US20180185347A1, “TETRAHYDROCYCLOPENTA[B]INDOLE COMPOUNDS AND PHOSPHODIESTERASE INHIBITORS FOR THE TREATMENT OF THE SIGNS AND SYMPTOMS OF BHP” (Transition Therapeutics (Ireland 2) Limited, priority 2016, published 2018).

The subject of one experiment is LnCAP cells. The experiment is described as follows: LnCAP gene expression. The format is cell-based. To be noted: Homo sapiens.
Another experiment relates to orchidectomized rats. The experiment is described as follows: Testosterone induced prostate / seminal vesicle growth in delayed ORX rat model. Format: in vivo. The source says:
Orchidectomized (ORX) and sham-operated Wistar male rats were used (orchidectomized at 8 weeks of age and allowed to waste for 4 weeks). […] Rats were randomized and placed into treatment groups (n=6) based on body weight. Route of administration for all groups except testosterone enanthate (TE was given sub-cutaneously) was oral. At the end of 2 weeks of daily rats were euthanized, weighed & tissue harvested. Levator ani, prostates, and seminal vesicles were collected from each animal. Results are plotted as means±SE.

Where [1] appears, read: ORX + TE, 1 mg/kg/d (control group itself).

The term EC50 denotes the concentration that produces a half-maximal response.

Where two headings read alike, the source gives them in different places.

Take `C[C@]1(O)CC[C@H]2[C@@H]3CCC4=CC(=O)CCC4=C3C=C[C@@]21C` [R1881]: the EC50 is 0.035 nM in the experiment on LnCAP cells (read-out: LnCAP Gene Expression EC50 (nM) AR), 0.37 nM in the experiment with LnCAP cells (read-out: LnCAP Gene Expression EC50 (nM) CLUSTERIN) and 0.034 nM with LnCAP cells (read-out: LnCAP Gene Expression EC50 (nM) PSA).

`CCCCCCC(=O)O[C@H]1CC[C@H]2[C@@H]3CCC4=CC(=O)CC[C@]4(C)[C@H]3CC[C@]12C` [TE, Testosterone Enanthate, reference compound]: in the experiment with orchidectomized rats (setting [1]), the “prostate weights, Abs(Dif)-LSD vs ORX + TE control” value is reported as −0.15 and the “seminal vesicle wet weights, Abs(Dif)-LSD vs ORX + TE control” value is reported as −0.52. Also, in the experiment with orchidectomized rats (ORX rat, Testosterone 1 mg/k/d alone for 2 weeks), the “prostate weight and seminal vesical weight” value is “increase in prostate weight and seminal vesical weight”.
